# Experiments:
# Assay in all cases: relative viability (nuclei count vs DMSO), 5 days (fraction); higher = more cells survive
# Sulindac + Decitabine = compound: CC1=C(CC(=O)O)c2cc(F)ccc2/C1=C\c1ccc([S+](C)[O-])cc1 [Sulindac] + Nc1ncn([C@H]2C[C@H](O)[C@@H](CO)O2)c(=O)n1 [Decitabine] (partner 2 µM)
# In short: (§1)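 Lung cancer cell lines, seeded in 1536-well plates, were treated the following day by pin tool with a single drug or with five library-drug doses (not always all listed) in √10 steps on top of a fixed anchor-drug dose. Cells were fixed and nuclei stained in one step after 5 days, and nuclei were counted. Relative viability is the nuclei count for treated wells divided by that for vehicle wells, reported as medians of duplicate plates.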
# [1] = compound: O=c1[nH]cc(F)c(=O)[nH]1 [5-Fluorouracil] + COc1cc2c(Oc3ccc(NC(=O)C4(C(=O)Nc5ccc(F)cc5)CC4)cc3F)ccnc2cc1OCCCN1CCOCC1 [Foretinib] (partner 0.25 µM)
# In short: as §1
# [2] = compound: CN[C@@H]1C[C@H]2O[C@@](C)([C@@H]1OC)n1c3ccccc3c3c4c(c5c6ccccc6n2c5c31)C(=O)NC4 [Staurosporine] + Nc1ncn([C@H]2C[C@H](O)[C@@H](CO)O2)c(=O)n1 [Decitabine] (partner 2 µM)
# In short: as §1
# Sulindac + OSI-027 = compound: CC1=C(CC(=O)O)c2cc(F)ccc2/C1=C\c1ccc([S+](C)[O-])cc1 [Sulindac] + COc1cccc2cc(-c3nc([C@H]4CC[C@H](C(=O)O)CC4)n4ncnc(N)c34)[nH]c12 [OSI-027] (partner 0.5 µM)
# In short: as §1
Cell Line,relative viability (Sulindac + Decitabine; first compound 0.08 µM),relative viability (Sulindac + Decitabine; first compound 0.253 µM),relative viability (Sulindac + Decitabine; first compound 0.8 µM),relative viability (Sulindac + Decitabine; first compound 2.53 µM),relative viability (Sulindac + Decitabine; first compound 8 µM),relative viability ([1]; first compound 0.02 µM),relative viability ([1]; first compound 0.2 µM),relative viability ([1]; first compound 0.6325 µM),relative viability ([1]; first compound 2 µM),relative viability ([2]; first compound 0.005 µM),relative viability ([2]; first compound 0.01581 µM),relative viability ([2]; first compound 0.05 µM),relative viability ([2]; first compound 0.1581 µM),relative viability ([2]; first compound 0.5 µM),relative viability (Sulindac + OSI-027; first compound 0.08 µM),relative viability (Sulindac + OSI-027; first compound 0.253 µM),relative viability (Sulindac + OSI-027; first compound 0.8 µM),relative viability (Sulindac + OSI-027; first compound 2.53 µM),relative viability (Sulindac + OSI-027; first compound 8 µM)
NCI-H2023,0.233,0.234,0.203,0.206,0.254,0.757,0.243,0.159,0.0994,0.218,0.162,0.116,0.0753,0.0615,0.501,0.509,0.399,0.387,0.389
NCI-H2085,0.497,0.556,0.545,0.525,0.5,1.02,0.899,0.93,0.592,0.527,0.4,0.463,0.364,0.352,0.8,0.822,0.674,0.831,0.755
NCI-H2087,0.186,0.324,0.254,0.246,0.323,1.27,1.05,0.628,0.519,0.28,0.141,0.094,0.0598,0.0694,0.67,0.595,,0.46,0.567
NCI-H2126,0.623,0.627,0.543,0.553,0.549,1.32,0.592,0.399,0.361,0.612,0.521,0.468,0.43,0.363,0.578,0.698,0.674,0.741,0.771
NCI-H2170,0.521,0.461,0.436,0.434,0.455,1,0.872,0.537,0.44,0.492,,0.431,0.354,0.229,0.694,0.72,0.684,0.739,0.756
NCI-H2342,0.681,0.706,0.591,0.648,0.786,0.961,1,0.885,0.786,0.772,0.687,0.513,0.553,0.372,0.591,0.578,0.546,0.618,0.694
NCI-H2347,0.609,0.632,0.548,0.652,0.636,0.689,0.822,0.453,0.513,0.527,0.406,0.384,0.309,0.323,0.398,0.363,,0.301,0.511
NCI-H2405,0.803,0.723,0.713,0.749,0.823,1,1.13,1.01,1.02,0.516,0.161,0.119,0.107,0.0998,0.664,0.711,0.736,0.602,0.685
NCI-H3122,0.409,0.385,0.352,0.435,0.439,0.956,0.721,0.363,0.218,0.541,,0.602,,0.329,1.07,1.02,0.864,0.937,1.13
PC-3 [JPC-3],0.777,0.791,0.838,0.77,0.855,1.06,1.03,0.881,0.703,0.883,0.586,0.55,0.422,0.349,0.715,0.797,0.614,0.752,0.728
PC-14,0.25,0.274,0.223,0.215,0.257,1.1,0.987,0.757,0.58,0.22,0.137,0.0771,0.0491,0.0544,1.3,1.2,,0.886,1.09
RERF-LC-KJ,0.667,0.706,0.608,0.63,0.751,0.901,0.938,0.831,0.823,0.647,0.397,0.275,0.23,0.201,0.681,0.671,0.551,0.569,0.587
SK-LU-1,0.691,0.642,0.53,0.647,0.673,0.819,0.902,0.75,0.681,0.331,0.232,0.212,0.229,0.154,0.305,0.343,0.295,0.316,0.351
SK-MES-1,0.378,0.418,0.304,0.436,0.386,0.872,0.946,0.45,0.358,0.32,0.239,0.204,0.136,0.121,0.781,0.823,0.55,0.609,0.631
SW 900,0.449,0.432,,,0.489,0.629,0.799,0.729,0.569,0.531,0.39,0.394,0.262,0.25,,0.566,,0.42,0.555
SW 1573,0.688,0.538,0.443,0.368,0.641,0.867,1.11,0.784,0.641,0.227,0.15,0.135,0.0749,0.067,0.722,0.676,,0.699,0.578

# From the supplement of paper PMC10307832
